Where a name gives a salt, the structure may show the parent alone.

The subject of one data set is patient. Put plainly: one-year high-dose tolerability in a patient. In kind it is in vivo, human. The conditions noted are these: up to 6,000 mg/day for one year in a patient.
Data set [1] has as its system post-COVID-19 fatigue patient. Put plainly: post-COVID-19 fatigue case (Example 5). It is filed as in vivo, human. Particulars: 500 mg BID. The method, then:
Afterwards, although their fever was resolved, they experienced fatigue so extreme that it was difficult for them to walk to the bathroom. They started taking 500 mg anhydrous enol-oxaloacetate BID for 45 days. Within 3 days 80% of fatigue was resolved. After 30 days, 100% of their fatigue was resolved.

Data set [2] has as its system Amyotrophic Lateral Sclerosis (ALS) patients. The experiment in a line: Phase 1 clinical trial in ALS, patient testimonials. Particulars: 1000 mg BID, dose taken without food; went away on eating. It is filed as in vivo, human. The method, then: A Phase 1 clinical trial was conducted with the Inventor supplying the anhydrous enol-oxaloacetate drug. Typically, Phase 1 clinical trials focus on the safety of a proposed drug, but patient response efficacy is also important and is noted. […] My name is […]. I was diagnosed with Bulbar onset ALS by Dr. Jawdat at the KU Medical Center in Kansas City KS on Oct. 14, 2020. […] I have muscle fasciculations pretty much all over my body at times and most are constant. The first 4 to 5 days taking the supplement, I did feel like they intensified an hour to two hours after taking it, and it lasted for approximately an hour or two. After those 4 or 5 days, it went back to the normal strength. At approximately the third week of taking the supplement I began to notice my tongue movement had better range of motion. I could see it pushing out the side of my cheek, I couldn't get it over there before. I also have felt like my left hand has gained a little strength and grip and I feel like I have a bit more strength in my left wrist. I do however feel like most things are still declining, but with such a short time of trying the supplement, I want to keep taking it to see if things can keep improving/changing. I am currently not on any ALS medications but do take some vitamins. • Patient 2. My spouse, Nathan, was part of a study with oxaloacetate for ALS. […]

Data set [3] deals with post-COVID-19 fatigue patient. Put plainly: post-COVID-19 fatigue case, physician (Example 3). Particulars: 500 mg BID; for Visual Fatigue Score: baseline 3, range 0 worst to 10 no fatigue; for Chalder Fatigue Score: range 33 worst to 0 no fatigue; for Fatigue Severity Score: baseline 54, range 63 worst to 9 no fatigue; for PROMIS Fatigue 7a: range 35 worst to 7 no fatigue.

As for `O=C(O)CC(=O)C(=O)O` [anhydrous enol-oxaloacetate, hydroxy fumarate], in the data set with patient, the side effects result was “no negative side effects”. In addition, the fatigue resolved amounted to 100% in data set [1] (after 30 days) and 80% in data set [1] (within 3 days). Also, the “side effect noticed by the patient” value in data set [2] is given as “upset stomach”. Besides, the “Visual Fatigue Score” value in data set [3] (Final, Dec. 3, 2020) is given as 10; in data set [3] (Nov. 3, 2020), 4. The “Chalder Fatigue Score” value in data set [3] (Final, Dec. 3, 2020, baseline 22) worked out at 2; in data set [3] (Nov. 3, 2020, baseline Oct. 14, 2020 22) it was 16. Also, the “Fatigue Severity Score” value was found to be 20 in data set [3] (Final, Dec. 3, 2020) and 54 in data set [3] (Nov. 3, 2020). Moreover, the “PROMIS Fatigue 7a” value is reported as 11 in data set [3] (Final, Dec. 3, 2020) and 25 in data set [3] (Nov. 3, 2020, baseline N/A).
